System: 485368-065-R3-J5-PDC spheroids with HUVEC/MSC, viability
Experiment: Anticancer human tumor 485368-065-R3-J5-PDC patient-derived pancreatic carcinoma cell line growth inhibition [RAS]
Conditions: for IC50: curve of first compound; for viability, T/C: stronger effect = lower value; active means viability on the fitted dose curve at most 10% of control; inactive means the rest
Summary of the method: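 Agents were tested in combination matrices in half-log decrements from a top concentration at or near clinical Cmax (10 microM if undetermined). Targets were multi-cell spheroids of tumour lines plus HUVEC and MSC stromal cells.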

[1] = second compound 0.00316 µM, first compound 0.0316 µM
[2] = second compound 0.00316 µM, first compound 0.1 µM
[3] = second compound 0.01 µM, first compound 0.0316 µM
[4] = second compound 0.01 µM, first compound 0.1 µM
[5] = second compound 0.0316 µM, first compound 0.0316 µM
[6] = second compound 0.0316 µM, first compound 0.1 µM
[7] = second compound 0.1 µM, first compound 0.0316 µM
[8] = second compound 0.1 µM, first compound 0.1 µM
[9] = second compound 0.316 µM, first compound 0.0316 µM
[10] = second compound 0.316 µM, first compound 0.1 µM
[11] = second compound 1 µM, first compound 0.0316 µM
[12] = second compound 1 µM, first compound 0.1 µM
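Further: spheroids exposed to agents for seven days before readout.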

CC(C)NCC(C(=O)N1CCN(c2ncnc3c2C(C)CC3O)CC1)c1ccc(Cl)cc1 (centres undefined) + C=CC(=O)N1CCN(c2nc(OCC3CCCN3C)nc3c(F)c(-c4nc(N)cc(C)c4C(F)(F)F)c(Cl)cc23)C(C)C1
9.61 µM: IC50 (second compound 1 µM)
inactive: viability, T/C [1] 101% | viability, T/C [2] 93.7% | viability, T/C (second compound 0.00316 µM, first compound 0.316 µM) 94.7% | viability, T/C (second compound 0.00316 µM, first compound 1 µM) 82.9% | viability, T/C (second compound 0.00316 µM, first compound 3.16 µM) 70.8% | viability, T/C (second compound 0.00316 µM, first compound 10 µM) 61.6% | viability, T/C [3] 109% | viability, T/C [4] 101% | viability, T/C (second compound 0.01 µM, first compound 0.316 µM) 91.4% | viability, T/C (second compound 0.01 µM, first compound 1 µM) 75.8% | viability, T/C (second compound 0.01 µM, first compound 3.16 µM) 72.9% | viability, T/C (second compound 0.01 µM, first compound 10 µM) 53.5% | viability, T/C [5] 102% | viability, T/C [6] 124% | viability, T/C (second compound 0.0316 µM, first compound 0.316 µM) 93.3% | viability, T/C (second compound 0.0316 µM, first compound 1 µM) 88.2% | viability, T/C (second compound 0.0316 µM, first compound 3.16 µM) 68.6% | viability, T/C (second compound 0.0316 µM, first compound 10 µM) 57% | viability, T/C [7] 102% | viability, T/C [8] 105% | viability, T/C (second compound 0.1 µM, first compound 0.316 µM) 93.1% | viability, T/C (second compound 0.1 µM, first compound 1 µM) 78.9% | viability, T/C (second compound 0.1 µM, first compound 3.16 µM) 70.5% | viability, T/C (second compound 0.1 µM, first compound 10 µM) 57.8% | viability, T/C [9] 100% | viability, T/C [10] 105% | viability, T/C (second compound 0.316 µM, first compound 0.316 µM) 97.3% | viability, T/C (second compound 0.316 µM, first compound 1 µM) 78.3% | viability, T/C (second compound 0.316 µM, first compound 3.16 µM) 71.8% | viability, T/C (second compound 0.316 µM, first compound 10 µM) 52.9% | viability, T/C [11] 101% | viability, T/C [12] 90.6% | viability, T/C (second compound 1 µM, first compound 0.316 µM) 102% | viability, T/C (second compound 1 µM, first compound 1 µM) 84.6% | viability, T/C (second compound 1 µM, first compound 3.16 µM) 68% | viability, T/C (second compound 1 µM, first compound 10 µM) 49.1%
> 10 µM: IC50 (second compound 0.00316 µM) | IC50 (second compound 0.01 µM) | IC50 (second compound 0.0316 µM) | IC50 (second compound 0.1 µM) | IC50 (second compound 0.316 µM)

CC(C)n1nc(-c2ccc3oc(N)nc3c2)c2c(N)ncnc21 + C=CC(=O)N1CCN(c2nc(OCC3CCCN3C)nc3c(F)c(-c4nc(N)cc(C)c4C(F)(F)F)c(Cl)cc23)C(C)C1
0.0196 µM: IC50 (second compound 0.1 µM)
0.0146 µM: IC50 (second compound 0.01 µM)
0.014 µM: IC50 (second compound 0.00316 µM)
0.0217 µM: IC50 (second compound 1 µM)
0.0169 µM: IC50 (second compound 0.0316 µM) | IC50 (second compound 0.316 µM)
inactive: viability, T/C (second compound 0.00316 µM, first compound 0.000316 µM) 106% | viability, T/C (second compound 0.00316 µM, first compound 0.001 µM) 99.4% | viability, T/C (second compound 0.00316 µM, first compound 0.00316 µM) 77.1% | viability, T/C (second compound 0.00316 µM, first compound 0.01 µM) 56% | viability, T/C [1] 35.6% | viability, T/C [2] 16.1% | viability, T/C (second compound 0.01 µM, first compound 0.000316 µM) 104% | viability, T/C (second compound 0.01 µM, first compound 0.001 µM) 90.4% | viability, T/C (second compound 0.01 µM, first compound 0.00316 µM) 81.4% | viability, T/C (second compound 0.01 µM, first compound 0.01 µM) 53.6% | viability, T/C [3] 37.2% | viability, T/C [4] 15.3% | viability, T/C (second compound 0.0316 µM, first compound 0.000316 µM) 97.2% | viability, T/C (second compound 0.0316 µM, first compound 0.001 µM) 95.8% | viability, T/C (second compound 0.0316 µM, first compound 0.00316 µM) 84.7% | viability, T/C (second compound 0.0316 µM, first compound 0.01 µM) 60.9% | viability, T/C [5] 36.5% | viability, T/C [6] 16.6% | viability, T/C (second compound 0.1 µM, first compound 0.000316 µM) 105% | viability, T/C (second compound 0.1 µM, first compound 0.001 µM) 90.9% | viability, T/C (second compound 0.1 µM, first compound 0.00316 µM) 96.3% | viability, T/C (second compound 0.1 µM, first compound 0.01 µM) 73.9% | viability, T/C [7] 32.8% | viability, T/C [8] 15.8% | viability, T/C (second compound 0.316 µM, first compound 0.000316 µM) 105% | viability, T/C (second compound 0.316 µM, first compound 0.001 µM) 99.8% | viability, T/C (second compound 0.316 µM, first compound 0.00316 µM) 83.3% | viability, T/C (second compound 0.316 µM, first compound 0.01 µM) 60.1% | viability, T/C [9] 38% | viability, T/C [10] 19.6% | viability, T/C (second compound 1 µM, first compound 0.000316 µM) 100% | viability, T/C (second compound 1 µM, first compound 0.001 µM) 87.8% | viability, T/C (second compound 1 µM, first compound 0.00316 µM) 84.1% | viability, T/C (second compound 1 µM, first compound 0.01 µM) 67% | viability, T/C [11] 41% | viability, T/C [12] 16.1%

— PubChem BioAssay AID2060902 (Molecular Pharmacology Branch, DTP, NCI, 2025)
